In patent US20240299360A1, “ADAMTS INHIBITORS, PREPARATION METHODS AND MEDICINAL USES THEREOF” (Jiangsu Hengrui Pharmaceuticals Co., Ltd., priority 2020, published 2024) one finds IC50 data, which are given here for 24 compounds.

Common to all, as to format: biochemical
Test [1] has as its target T1, ADAMTS-5 recombinant protein (Homo sapiens (Human), UniProt Q9UNA0). The experiment in a line: In vitro fluorescence (FRET-peptide) enzymatic assay of ADAMTS-5 activity. The conditions noted are these: FRET peptide substrate 8 μM, 10 nM enzyme, 37° C. 3 hours. How it is done: (§1) A FRET (fluorescence resonance energy transfer) peptide was cleaved by recombinant ADAMTS-4 or ADAMTS-5 proteins into two separate fragments resulting in an increase of fluorescence signal which was quantified. The peptide was 5-FAM-[…](5-TAMRA)K-NH2, customized from ANASPEC. ADAMTS-4 recombinant protein (catalog #4307-AD) and ADAMTS-5 recombinant protein (catalog #2198-AD) were purchased from R&D Systems.
(§2) An assay buffer containing 50 mM HEPES pH 7.5, 100 mM NaCl, 5 mM CaCl2, 0.1% CHAPS and 5% Glycerol was prepared. A volume of 2.5 μl of compound in the assay buffer was dispensed to a 384-well plate, and 2.5 μl of ADAMTS-4 or ADAMTS-5 protein (final concentration in the reaction was 10 nM) was added. The compounds and proteins were pre-incubated at room temperature for 15 minutes. Then, 5 μl of substrate was added to each well. The final substrate concentrations for ADAMTS-4 and ADAMTS-5 were 15 μM and 8 μM, respectively. The fluorescence signal in each well was determined, after incubation at 37° C. for 3 hours, on a TECAN plate reader (Excitation, 490 nm; Emission, 520 nm).
(§3) The data was inputted into GraphPad Prism, and the IC50 values were calculated using function “log (inhibitor) vs. response—Variable slope (four parameters)”. (See Table 1)

Test [2] has as its target T1, ADAMTS-5 recombinant protein. The experiment in a line: In vitro ELISA of ADAMTS-5 activity (Aggrecan-IGD enzymatic assay). Particulars: aggrecan-IGD substrate, ARGSVIL-peptide ELISA, 37° C. 45 minutes. The procedure:
In this assay, the enzymatic activity of recombinant ADAMTS-5 protein (catalog #2198-AD, R&D Systems) was assayed with a protein substrate, the aggrecan IGD protein. The aggrecan IGD protein is a polypeptide connecting human aggrecan globular domains 1 and 2 (T331-G458) expressed in E. Coli with a C-terminal His-tag (catalog #30411000, BIOTEZ). The enzymatic product ARGSVIL-peptide was detected using an ELISA kit from BioTEZ (catalog #30510111).
An assay buffer containing 50 mM HEPES pH 7.5, 100 mM NaCl, 5 mM CaCl2), 0.1% CHAPS and 5% Glycerol was prepared. Recombinant ADAMTS-5 protein was diluted to 0.3 nM in the assay buffer. Ten μl of […] and 10 μl of compound solution was transferred to each well of a 96-well plate and incubated at room temperature for 15 minutes. Substrate aggrecan-IGD was diluted to 100 nM with the assay buffer and 20 μl was added to each well. The plate was incubated at 37° C. for 45 minutes. After incubation, the newly generated epitope ARGSVIL-peptides were measured using the Aggrecanase Activity ELISA Assay Kit following the manufacturer's instructions. Then, 100 μl of stop solution was added and the absorbance of each well was read at 450 nm, using […] as reference on a TECAN plate reader.
A standard curve of the ELISA assay was generated in GraphPad Prism using Sigmoidal 4PL function and the corresponding peptide concentrations were calculated based on the standard curve. The IC50 values were calculated using function “log (inhibitor) vs. response—Variable slope (four parameters)”. (See Table 2).

The target in test [3] is ADAMTS-4 recombinant protein (Homo sapiens (Human), UniProt O75173). Kind of test: In vitro fluorescence (FRET-peptide) enzymatic assay of ADAMTS-4 activity. Particulars: FRET peptide substrate 15 μM, 10 nM enzyme, 37° C. 3 hours. The procedure:
as §1, §2, §3

T1 sequence (Q9UNA0 262-622): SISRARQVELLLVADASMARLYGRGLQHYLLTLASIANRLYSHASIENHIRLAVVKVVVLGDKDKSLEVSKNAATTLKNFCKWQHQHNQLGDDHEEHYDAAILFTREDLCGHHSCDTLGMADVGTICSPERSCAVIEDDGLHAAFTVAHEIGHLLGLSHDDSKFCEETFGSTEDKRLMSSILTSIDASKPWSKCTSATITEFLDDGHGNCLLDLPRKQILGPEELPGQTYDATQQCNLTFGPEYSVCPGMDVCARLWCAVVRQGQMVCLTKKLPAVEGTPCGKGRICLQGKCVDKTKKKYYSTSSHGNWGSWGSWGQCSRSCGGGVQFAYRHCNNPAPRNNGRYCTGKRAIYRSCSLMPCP
Sequence of ADAMTS-4 recombinant protein (O75173 213-685): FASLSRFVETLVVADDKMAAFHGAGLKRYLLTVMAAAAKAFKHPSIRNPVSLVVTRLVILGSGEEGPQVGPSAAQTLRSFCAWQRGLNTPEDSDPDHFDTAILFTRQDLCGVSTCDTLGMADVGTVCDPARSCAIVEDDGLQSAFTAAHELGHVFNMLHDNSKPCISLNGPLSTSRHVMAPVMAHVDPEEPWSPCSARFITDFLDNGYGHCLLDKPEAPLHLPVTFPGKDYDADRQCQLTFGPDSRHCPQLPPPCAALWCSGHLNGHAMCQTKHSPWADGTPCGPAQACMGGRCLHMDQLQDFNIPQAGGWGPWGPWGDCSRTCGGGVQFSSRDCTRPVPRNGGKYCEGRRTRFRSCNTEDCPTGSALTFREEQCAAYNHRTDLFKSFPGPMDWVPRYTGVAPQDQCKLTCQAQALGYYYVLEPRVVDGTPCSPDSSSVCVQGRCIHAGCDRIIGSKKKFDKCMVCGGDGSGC

On to `CC(C[C@@]1(C2CC2)NC(=O)NC1=O)C(=O)N1Cc2cc(Cl)c(Cl)cc2C1` (mixture of isomers) [Example 34-2, (5S)-5-cyclopropyl-5-(3-(5,6-dichloroisoindolin-2-yl)-2-methyl-3-oxopropyl)imidazolidine-2,4-dione], for which the 50% inhibitory concentration (IC50) in test [1] was determined as 9 nM; in test [2], 17 nM; in test [3], 7 nM.

Take `O=C1NC(=O)[C@](C[C@@H](CO)C(=O)N2Cc3cc(Cl)c(C(F)(F)F)cc3C2)(C2CC2)N1` (single isomer, unassigned): the IC50 in test [1] came out at 15 nM; in test [3] it was 16 nM.

Turning to `C[C@H]1CN(C(=O)CC[C@@]2(C3CC3)NC(=O)NC2=O)CCc2ccc(F)cc21` (single isomer, unassigned) [Example 27], the IC50 is 270 nM in test [1] and 170 nM in test [3].

For the compound `C[C@@H]1CN(C(=O)CC[C@@]2(C3CC3)NC(=O)NC2=O)CCc2ccc(F)cc21` (single isomer, unassigned) [Example 28], the IC50 in test [1] is 48 nM; in test [3], 47 nM.

Regarding `O=C1NC(=O)[C@](CCC(=O)N2Cc3ccc(Cl)cc3C2)(C2CC2)N1` [Example 2, (S)-5-(3-(5-chloroisoindolin-2-yl)-3-oxopropyl)-5-cyclopropylimidazolidine-2,4-dione], the IC50 in test [1] amounted to 190 nM; in test [2], 860 nM; in test [3], 91 nM.

As for `O=C1NC(=O)[C@](CCC(=O)N2Cc3ccc(OC(F)(F)F)cc3C2)(C2CC2)N1` [Example 4, (S)-5-cyclopropyl-5-(3-oxo-3-(5-(trifluoromethoxy)isoindolin-2-yl)propyl)imidazolidine-2,4-dione], the concentration for half-maximal inhibition (IC50) in test [1] came to 480 nM; in test [2], 730 nM; in test [3], 170 nM.

`O=C1NC(=O)[C@](CCC(=O)N2Cc3ccc(OC(F)F)cc3C2)(C2CC2)N1` [Example 10, (S)-5-cyclopropyl-5-(3-(5-(difluoromethoxy)isoindolin-2-yl)-3-oxopropyl)imidazolidine-2,4-dione]: the IC50 in test [1] stood at 260 nM; in test [3] it was 41 nM.

As to `O=C1NC(=O)[C@](CCC(=O)N2Cc3cccnc3C2)(C2CC2)N1` [Example 12, (S)-5-cyclopropyl-5-(3-(5,7-dihydro-6H-pyrrolo[3,4-b]pyridin-6-yl)-3-oxopropyl)imidazolidine-2,4-dione], the IC50 in test [1] was 1500 nM; in test [3], 2300 nM.

Take `O=C1NC(=O)[C@](CCC(=O)N2Cc3ccncc3C2)(C2CC2)N1` [Example 13, (S)-5-cyclopropyl-5-(3-(1,3-dihydro-2H-pyrrolo[3,4-c]pyridin-2-yl)-3-oxopropyl)imidazolidine-2,4-dione]: the IC50 in test [1] was found to be 4000 nM; in test [3], 1400 nM.

Consider `C[C@@H]1c2ccccc2CN1C(=O)CC[C@@]1(C2CC2)NC(=O)NC1=O` [Example 14, (S)-5-cyclopropyl-5-(3-((R)-1-methylisoindolin-2-yl)-3-oxopropyl)imidazolidine-2,4-dione], for which the IC50 in test [1] was 1000 nM; in test [3], 290 nM.

Regarding `O=C1NC(=O)[C@](CCC(=O)N2Cc3cccc(F)c3C2)(C2CC2)N1` [Example 16, (S)-5-cyclopropyl-5-(3-(4-fluoroisoindolin-2-yl)-3-oxopropyl)imidazolidine-2,4-dione], the IC50 in test [1] was 6200 nM; in test [3], 1700 nM.

On to `O=C1NC(=O)[C@](CCC(=O)N2Cc3ccc(F)cc3C2)(C2CC2)N1` [Example 17, (S)-5-cyclopropyl-5-(3-(5-fluoroisoindolin-2-yl)-3-oxopropyl)imidazolidine-2,4-dione], for which the IC50 in test [1] is 370 nM; in test [3] it was 310 nM.

Take `O=C1NC(=O)[C@](CCC(=O)N2Cc3cc(F)c(F)cc3C2)(C2CC2)N1` [Example 19, (S)-5-cyclopropyl-5-(3-(5,6-difluoroisoindolin-2-yl)-3-oxopropyl)imidazolidine-2,4-dione]: the IC50 in test [1] turned out to be 330 nM; in test [3] it was 260 nM.

Take `COc1cccc2c1CCN(C(=O)CC[C@@]1(C3CC3)NC(=O)NC1=O)CC2` [Example 25, (S)-5-cyclopropyl-5-(3-(6-methoxy-1,2,4,5-tetrahydro-3H-benzo[d]azepin-3-yl)-3-oxopropyl)imidazolidine-2,4-dione]: the IC50 is 3600 nM in test [1] and 5800 nM in test [3].

With `CC1(C)CN(C(=O)CC[C@@]2(C3CC3)NC(=O)NC2=O)CCc2ccccc21` [Example 26, (S)-5-cyclopropyl-5-(3-(1,1-dimethyl-1,2,4,5-tetrahydro-3H-benzo[d]azepin-3-yl)-3-oxopropyl)imidazolidine-2,4-dione], the IC50 in test [1] was 5400 nM; in test [3] it was 3800 nM.

Turning to `CCC(C[C@@]1(C2CC2)NC(=O)NC1=O)C(=O)N1Cc2ccc(C(F)(F)F)cc2C1` (stereo partly drawn) [Example 31-2, (5S)-5-cyclopropyl-5-(2-(5-(trifluoromethyl)isoindoline-2-carbonyl)butyl)imidazolidine-2,4-dione], the IC50 in test [2] stood at 33 nM.

As for `O=C1NC(=O)C(CCC(=O)N2Cc3ccc(C(F)(F)F)cc3C2)(c2nccs2)N1` (centres unmarked) [Example 43, 5-(3-oxo-3-(5-(trifluoromethyl)isoindolin-2-yl)propyl)-5-(thiazol-2-yl)imidazolidine-2,4-dione], the IC50 in test [1] stood at 250 nM; in test [3], 150 nM.

With `O=C1NC(=O)[C@](CCC(=O)N2Cc3cc(Cl)c([N+](=O)[O-])cc3C2)(C2CC2)N1` [Example 50, (S)-5-(3-(5-chloro-6-nitroisoindolin-2-yl)-3-oxopropyl)-5-cyclopropylimidazolidine-2,4-dione], the IC50 amounted to 220 nM in test [1] and 120 nM in test [3].

For `O=C1NC(=O)[C@](CCC(=O)N2Cc3cc(Cl)c(I)cc3C2)(C2CC2)N1` [Example 53, (S)-5-(3-(5-chloro-6-iodoisoindolin-2-yl)-3-oxopropyl)-5-cyclopropylimidazolidine-2,4-dione], the IC50 in test [1] is 170 nM; in test [3], 240 nM.

Turning to `O=C1NC(=O)C(CCC(=O)N2Cc3ccc(C(F)(F)F)cc3C2)(c2ccccn2)N1` (centres unmarked) [Example 60, 5-(3-oxo-3-(5-(trifluoromethyl)isoindolin-2-yl)propyl)-5-(pyridin-2-yl)imidazolidine-2,4-dione], the results for the IC50 in test [1] and in test [3] were 220 nM and 170 nM, respectively.

`O=C1NC(=O)[C@](CCC(=O)N2Cc3ccc(CC(F)(F)F)cc3C2)(C2CC2)N1` [Example 72, (S)-5-cyclopropyl-5-(3-oxo-3-(5-(2,2,2-trifluoroethyl)isoindolin-2-yl)propyl)imidazolidine-2,4-dione]: the IC50 in test [1] stood at 130 nM; in test [3], 43 nM.

On to `O=C1NC(=O)[C@](CCC(=O)N2Cc3cc(F)c(C(F)F)cc3C2)(C2CC2)N1` [Example 74, (S)-5-cyclopropyl-5-(3-(5-(difluoromethyl)-6-fluoroisoindolin-2-yl)-3-oxopropyl)imidazolidine-2,4-dione], for which the IC50 in test [1] stood at 100 nM; in test [3], 56 nM.

With `Cn1ccc(C2(CCC(=O)N3Cc4cc(Cl)c(C(F)(F)F)cc4C3)NC(=O)NC2=O)n1` (centres unmarked) [Example 77, 5-(3-(5-chloro-6-(trifluoromethyl)isoindolin-2-yl)-3-oxopropyl)-5-(1-methyl-1H-pyrazol-3-yl)imidazolidine-2,4-dione], the IC50 turned out to be 160 nM in test [1] and 400 nM in test [3].

On to `CCn1ccnc1C1(CCC(=O)N2Cc3cc(Cl)c(C(F)(F)F)cc3C2)NC(=O)NC1=O` (centres unmarked) [Example 82, 5-(3-(5-chloro-6-(trifluoromethyl)isoindolin-2-yl)-3-oxopropyl)-5-(1-ethyl-1H-imidazol-2-yl)imidazolidine-2,4-dione], for which the IC50 in test [1] came out at 25 nM; in test [3] it was 80 nM.

By IC50 is commonly meant the concentration at which inhibition is half-maximal.
